# Laboratory results from US20030059956A1, “Method to follow progression of kidney disease” (priority 2001, published 2003).
# Tested on: urinary TGF-β1
# Experiment: Urinary TGF-β1 excretion in proteinuric patients, add-on losartan crossover trial on background lisinopril
# Type: in vivo, human
# Conditions: add-on losartan 50 mg/d for 4 weeks on lisinopril 40 mg/d
# Description: Patients previously administered angiotensin-receptor blockers (ARBs) or with estimated creatinine clearances of less than 30 mumin were excluded. A separate group of 12 healthy volunteers with normal BP, normal albuminuria, and no history of kidney disease or diabetes served as the control group for urinary TGF-β1 levels.
# The study was a two-period, crossover, randomized, controlled trial. Seventeen (17) patients were administered a sequence of either losartan, 50 mg/d, for 4 weeks, 2-week washout, and placebo for 4 weeks or placebo for 4 weeks, 2-week washout, and losartan, 50 mg/d, for 4 weeks. […] Twenty-four-hour urine was collected for protein, sodium, urea, creatinine, and urinary TGF-β1 measurement. Because standard therapy for patients with proteinuria and renal failure includes ACE inhibitors, ACE inhibitor therapy was not discontinued in any patient enrolled in the study.
# Appropriate corrections for concentrations were made and values were expressed as TGF-β1 in picograms per milligram of creatinine. […] TGF-β expressed as TGF-β in picograms per milligram of creatinine was calculated as follows:
# The normality assumption was tested with the Kolmogrov Smirnov statistic, and homogeneity of variances was tested using Lavene's test. […] Data were analyzed by two-way mixed-model analysis of variance with subjects as the random variable and drug or placebo assignment as the fixed variable. […]
structure (smiles),measurement,setting,value
CCCCc1nc(Cl)c(CO)n1Cc1ccc(-c2ccccc2-c2nn[nH]n2)cc1 [losartan],reduction in urinary TGF-β1 levels,"95% CI 16 to 55, P=0.017",38%
same,urinary TGF-β1 level after losartan,"geometric mean, pre-losartan level 13.3 (95% CI 11.4 to 15.5)",8.2 pg/mg creatinine
